The conditions of data set [1]: in vivo; cited from earlier work.
The nature of data set [2]: MRI imaging (1.5 Tesla, T1) of rat bearing subcutaneous F98 glioma tumor after intravenous injection. It counts as in vivo. How it is done: A male rat bearing a subcutaneous F98 glioma tumor in its thigh was anesthetized and a catheter inserted into the femoral vein. The animal was then placed in a 1.5 Tesla clinical MRI scanner with a head coil around it. T1 images were acquired before injection. The sample in example 2 was used without further purification, and an amount was injected, corresponding to a dose of 0.1 mmol Gd/kg, which is the recommended dose/weight for gadodiamide use in vivo. Images were acquired using both T1 and T2 modes. […] For comparison, a rat bearing a similar tumor was injected with 0.1 mmol gadodiamide/kg. […] Many of the smaller vesicles filtered through the kidneys, since at 30 min post injection not only was contrast seen in the urine in the bladder (as also seen with the gadodiamide only preparation), but high contrast was seen on the surface of the urine in the bladder. This may be explained by the lower density of the lipid-containing vesicles, allowing them to float on the surface. […] It should be noted that whatever the fate of the contrast agent is, only an FDA approved standard amount was injected, and should not cause any toxic effects.

Where [3] appears, read: abdominal aorta, 10 min after injection.
The mark [4] stands for this setting: hepatic portal vein, 10 min after injection.
[5] abbreviates: inferior vena cava, 10 min after injection.

“And” between values parts separate entries of the source, which are not always exact repeats. Identical values can stand only once.

This is an account of results in US20070243137A1, “Cell and sub-cell methods for imaging and therapy” (priority 2006, published 2007).

Consider `O=C([O-])CN(CCN(CC(=O)[O-])CC(=O)O)CCN(CC(=O)[O-])CC(=O)O.[Gd+3]` [Gd-DTPA, gadolinium diethytriaminepentaacetic acid], for which the blood half-life in data set [1] is listed as approximately 20 min.

On to `CNC(=O)CN(CCN(CCN(CC(=O)[O-])CC(=O)NC)CC(=O)[O-])CC(=O)[O-].[Gd+3]` [gadodiamide, Gadolinium diethylenetriaminepentaacetic acid bismethyl-amide], for which the “maximal tumor contrast relative to rat given vesicle-loaded gadodiamide” value in data set [2] (0.1 mmol gadodiamide/kg, rat with similar tumor) is listed as “approximately one-half”. Also, the “After injection (HU), tumor” value in data set [2] (F98 glioma tumor in thigh, 10 min after i.v. injection, 0.1 mmol Gd/kg) was 828±82 HU and 828 HU. Moreover, the “After injection (HU), Abdominal Aorta” value in data set [2] (abdominal aorta, 10 min after i.v. injection, 0.1 mmol Gd/kg) was 627±76 HU and 627 HU. In data set [2] (setting [3]), the “Contrast change (HU), Abdominal Aorta” value is recorded as 9 HU and the “Percent change, Abdominal Aorta” value is recorded as 1%. The “After injection (HU), Heart” value in data set [2] (heart, 10 min after i.v. injection, 0.1 mmol Gd/kg, T1) is 540±137 HU and 540 HU. Moreover, in data set [2] (heart, 10 min after injection), the “Contrast change (HU), Heart” value came to 91 HU and the “Percent change, Heart” value is listed as 20%. For the same molecule, the “After injection (HU), hepatic portal vein” value in data set [2] (hepatic portal vein, 10 min after i.v. injection, 0.1 mmol Gd/kg) was 774±47 HU and 774 HU. In data set [2] (setting [4]), the “Contrast change (HU), hepatic portal vein” value was 96 HU and the “Percent change, hepatic portal vein” value is 14%. Besides, in data set [2] (inferior vena cava, 10 min after i.v. injection, 0.1 mmol Gd/kg), the “After injection (HU), Inferior vena cava” value was 770±49 HU and 770 HU. Also, in data set [2] (setting [5]), the “Contrast change (HU), Inferior vena cava” value is on record as 10 HU and the “Percent change, Inferior vena cava” value was 1%. The “After injection (HU), Kidney” value in data set [2] (kidney, 10 min after i.v. injection, 0.1 mmol Gd/kg) was 1411±136 HU and 1411 HU. Also, in data set [2] (kidney, 10 min after injection), the “Contrast change (HU), Kidney” value was determined as 848 HU and the “Percent change, Kidney” value came to 151%. Besides, the “After injection (HU), Liver” value in data set [2] (liver, 10 min after i.v. injection, 0.1 mmol Gd/kg) is 831±27 HU and 804±58 HU and 831 HU. Moreover, in data set [2] (liver, 10 min after injection), the “Contrast change (HU), Liver” value is reported as 16 HU and the “Percent change, Liver” value was determined as 2%. Besides, the “vascular contrast in T1 mode” value in data set [2] (minutes after injection up to 20 minutes or more, 0.1 mmol/kg) is “not significantly contrasted”. In addition, in data set [2] (tumor, 10 min after injection), the “Contrast change (HU), tumor” value is recorded as 321 HU and the “Percent change, tumor” value is on record as 63%. Further, the blood half-life in data set [1] was approximately 20 min.
